# Measured values as given in patent publication US20230024302A1, “2,3,5-TRISUBSTITUTED PYRAZOLO[1,5-A]PYRIMIDINE COMPOUNDS” (Arcus Biosciences, Inc., priority 2019, published 2023).
# Read-outs that look alike come from different tables or passages of the source.
# Legend:
# PI3Kγ = target: T1, PI3Kγ (Homo sapiens, UniProt P48736); assay: PI3Kγ cellular assay in THP-1 cells (AKT pS473 AlphaLISA); assay type: cell-based
# T1 construct: host or cells: THP-1
# Procedure, shortened: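 Endogenous AKT S473 phosphorylation, detected by AlphaLISA in lysates, serves as the PI3Kγ activity read-out in stimulated, serum-starved THP-1 cells (1.8×10^5/well).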
# PI3Kγ (p120γ) = target: T2, PI3Kγ (p120γ) (Homo sapiens, UniProt P48736); assay: Inhibition of PI3K kinase activity (ADP Glo), PI3Kγ; details: read-out: biochemical potency (PI3Kγ IC50)
# T2 construct: purchased Promega V1761
# T2 sequence (P48736 whole entry): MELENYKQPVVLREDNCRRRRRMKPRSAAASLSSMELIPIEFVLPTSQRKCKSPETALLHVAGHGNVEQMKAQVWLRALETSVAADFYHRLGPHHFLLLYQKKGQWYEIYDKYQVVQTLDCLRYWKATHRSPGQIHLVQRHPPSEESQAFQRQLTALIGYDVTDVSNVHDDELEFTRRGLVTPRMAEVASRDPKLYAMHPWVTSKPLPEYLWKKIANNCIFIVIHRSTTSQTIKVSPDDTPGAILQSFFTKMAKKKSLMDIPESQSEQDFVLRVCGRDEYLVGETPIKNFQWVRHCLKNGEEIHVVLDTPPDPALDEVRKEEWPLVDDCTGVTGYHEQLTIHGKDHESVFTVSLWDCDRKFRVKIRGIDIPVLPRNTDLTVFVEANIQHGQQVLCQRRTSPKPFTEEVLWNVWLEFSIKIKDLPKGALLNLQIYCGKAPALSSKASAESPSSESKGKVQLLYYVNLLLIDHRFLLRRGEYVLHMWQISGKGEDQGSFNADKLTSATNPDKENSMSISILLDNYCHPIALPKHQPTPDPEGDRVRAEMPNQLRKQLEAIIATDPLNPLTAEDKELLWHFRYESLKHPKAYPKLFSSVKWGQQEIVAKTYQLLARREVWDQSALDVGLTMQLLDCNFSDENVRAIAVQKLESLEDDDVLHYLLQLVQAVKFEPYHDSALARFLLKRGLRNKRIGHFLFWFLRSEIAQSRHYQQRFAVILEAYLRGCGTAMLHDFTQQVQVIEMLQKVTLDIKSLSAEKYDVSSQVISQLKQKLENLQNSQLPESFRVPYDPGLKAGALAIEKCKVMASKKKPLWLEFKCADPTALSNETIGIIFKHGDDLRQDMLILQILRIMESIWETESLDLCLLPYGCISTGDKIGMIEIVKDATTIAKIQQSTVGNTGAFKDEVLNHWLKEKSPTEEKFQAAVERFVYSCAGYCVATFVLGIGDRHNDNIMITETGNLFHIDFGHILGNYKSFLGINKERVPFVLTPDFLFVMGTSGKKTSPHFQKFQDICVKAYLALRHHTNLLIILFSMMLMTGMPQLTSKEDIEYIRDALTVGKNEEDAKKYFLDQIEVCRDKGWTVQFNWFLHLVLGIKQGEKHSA
# Procedure, shortened: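 IC50 values come from a 4-parameter nonlinear fit of ADP-Glo luminescence, which measures ADP produced as PIP2 is phosphorylated to PIP3. The p120γ enzyme (2× stock 8 nM) sat with compound 1 h at rt before substrate (2× stocks: 50 μM ATP, 0.1 mg/ml PIP2) was added. Phosphorylation then proceeded 60 min at rt.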
# [1] = Table 2, rhMCP-1 stimulated AKT pS473, read-out: cellular potency (PI3Kγ IC50)
# [2] = AKT pS473, read-out: cellular potency (PI3Kγ IC50)
# T1 sequence (P48736 whole entry): as above
smiles,measurement,setting,value
Cc1cc(-c2ccn3nc(N)c(C(=O)N[C@@H](CO)C(C)(C)C)c3n2)cc2c1C(=O)N([C@@H](C)C1CC1)C2 [Example 237],IC50,PI3Kγ; [1],100 to 1000 nM
same,IC50,"PI3Kγ (p120γ); Table 2, p120γ",< 100 nM
Cc1cc(-c2ccn3nc(N)c(C(=O)NC4CC4)c3n2)cc2c1C(=O)N(C(C)C)C2 [Example 304],IC50,PI3Kγ; [1],100 to 1000 nM
same,IC50,"PI3Kγ (p120γ); Table 2, p120γ",< 100 nM
COCC(C)(C)NC(=O)c1c(N)nn2ccc(-c3cc4c(c(NS(C)(=O)=O)c3)C(=O)N([C@@H](C)C3CC3)C4)nc12 [Example 390],IC50,PI3Kγ; [2],100 to 1000 nM
same,IC50,PI3Kγ (p120γ),< 100 nM
Cc1cc(-c2ccn3nc(N)c(C(=O)N4CCN(C)CC4)c3n2)cc2c1C(=O)N(C(C)C1CC1)C2 (stereo not drawn) [Example 291],IC50,PI3Kγ; [1],> 1000 nM
same,IC50,"PI3Kγ (p120γ); Table 2, p120γ",> 1000 nM
COC[C@@H](C)NC(=O)c1c(N)nn2ccc(-c3cc4c(c(NS(C)(=O)=O)c3)C(=O)N([C@@H](C)C3CC3)C4)nc12 [Example 385],IC50,PI3Kγ; [2],100 to 1000 nM
same,IC50,PI3Kγ (p120γ),< 100 nM
Cc1cc(-c2ccn3nc(N)c(C(=O)Nc4ccccc4)c3n2)cc2c1C(=O)N([C@@H](C)C1CC1)C2 [Example 298],IC50,PI3Kγ; [1],> 1000 nM
same,IC50,"PI3Kγ (p120γ); Table 2, p120γ",< 100 nM
